Source: patent EP4616862A1, “ANTIVIRAL C[…] DERIVED FROM NUCLEIC ACID AND PHARMACEUTICALLY ACCEPTABLE SALTS THEREOF” (priority 2022, dated 2024)
Like-named read-outs stand apart in the source and are kept apart here.

Tests used:
[1] = system: Feline parvovirus (FPV); test: microbe, parasite or virus in culture; format: cell-based; settings: for IC50: Feline parvovirus, CRFK
[2] = Cytotoxicity (FPV example); format: cell-based, feline; settings: Table 7 (FPV), cell line for cytotoxicity not given
[3] = system: Low pathogenic avian influenza virus (LPAIV, H9N2); test: microbe, parasite or virus in culture; format: cell-based; settings: for IC50: unidentified influenza virus, H9N2, MDCK
[4] = system: Mx1; format: cell-based, Pig
[5] = Cytotoxicity (FCV example); format: cell-based, feline; settings: Table 8 (FCV), cell line for cytotoxicity not given
[6] = system: Classical Swine Fever Virus (CSFV); test: microbe, parasite or virus in culture; format: cell-based; settings: for IC50: Classical swine fever virus
[7] = system: African Swine Fever Virus (ASFV, China/2018/AnhuiXCGQ); test: microbe, parasite or virus in culture; format: cell-based; settings: for IC50: African swine fever virus
[8] = system: Canine distemper virus (CDV); test: microbe, parasite or virus in culture; format: cell-based; settings: for IC50: canine distemper virus, Vero
[9] = system: FIPV; test: FIPV infection inhibition in FCWF-4 cells (RT-qPCR); format: cell-based, Feline Infectious peritonitis virus; settings: for IC50: FCWF-4 cell line; for SI (selectivity index): CC50/IC50
[10] = in vitro
[11] = Cytotoxicity (CAV example); format: cell-based, monkey; settings: Table 5 (CAV), cell line for cytotoxicity not given
[12] = system: Canine adenovirus (CAV); test: CAV infection inhibition in Vero cells (qPCR of viral DNA); format: cell-based; settings: for SI (selectivity index): CC50/IC50; for IC50: Canine mastadenovirus A, Vero cell line
[13] = in vitro; remark: listed apart in the source
[14] = in vitro; remark: listed apart in the source
[15] = system: Feline Calicivirus (FCV); test: microbe, parasite or virus in culture; format: cell-based; settings: for IC50: Feline calicivirus, CRFK
[16] = Cytotoxicity (FIPV example); format: cell-based, feline; settings: Table 9 (FIPV), cell line for cytotoxicity not given
[17] = Cytotoxicity (CDV example); format: cell-based, monkey; settings: Table 6 (CDV), cell line for cytotoxicity not given
[18] = system: ISG15; format: cell-based, Pig
[19] = Cytotoxicity (CCoV example); format: cell-based, canine; settings: Table 4 (CCoV), cell line for cytotoxicity not given
[20] = system: RNaseL; format: cell-based, Pig
[21] = in vitro; remark: listed apart in the source
[22] = system: foot and mouth disease virus (FMDV); test: microbe, parasite or virus in culture; format: cell-based; settings: for IC50: Foot-and-mouth disease virus
[23] = system: Canine coronavirus (CCoV); test: microbe, parasite or virus in culture; format: cell-based
[24] = 48 h, read-out: IC50 (FPV infection inhibition concentration)
[25] = 48 h, read-out: IC50 (LPAIV infection inhibition concentration)
[26] = PK-15, 48 h, read-out: IC50 (CSFV infection inhibition concentration)
[27] = 48 h, read-out: IC50 (ASFV infection inhibition concentration)
[28] = 72 h, read-out: IC50 (CDV infection inhibition concentration)
[29] = Alphacoronavirus 1, 48 h, FIPV 100 TCID50/well, simultaneous treatment, 2 days, RT-qPCR, read-out: IC50 (FIPV infection inhibition concentration)
[30] = 48 h, CAV 100 TCID50/well, simultaneous treatment, 2 days, qPCR, read-out: IC50 (CAV infection inhibition concentration)
[31] = 24 h, read-out: IC50 (FCV infection inhibition concentration)
[32] = BHK-21, 36 h, read-out: IC50 (FMDV infection inhibition concentration)
[33] = Alphacoronavirus 1, A-72, 48 h, read-out: IC50 (CCoV infection inhibition concentration)

SMILES | SI (selectivity index) [1] | IC50 [1, 24] | IC50 [3, 25] | Fold change (multiple increase compared to control group) Mx1 [4] | SI (selectivity index) [6] | IC50 [6, 26] | SI (selectivity index) [7] | IC50 [7, 27] | SI (selectivity index) [8] | IC50 [8, 28] | IC50 [9, 29] | SI (selectivity index) ([9]; FIPV) | SI (selectivity index) ([12]; CAV) | IC50 [12, 30] | SI (selectivity index) [15] | IC50 [15, 31] | Fold change (multiple increase compared to control group) ISG15 [18] | Fold change (multiple increase compared to control group) RNaseL [20] | SI (selectivity index) [23] | IC50 [23, 33] | further results
Nc1nc2c(ncn2[C@@H](CO)OC(CO)CO)c(=O)[nH]1 [Acyclic diol-Guanosine, acyclic diol form of guanosine] | > 1.9 | < 530 µM | < 1340 µM | 4.0 (±1.2) | > 2.8 | < 3610 µM | > 37.0 | < 270 µM | > 4.7 | < 2120 µM | < 1510 µM | > 6.6 | > 2.4 | < 4130 µM | > 75.1 | < 133 µM | 4.2 (±1.5) | 3.0 (±0.8) | > 4.5 | < 2240 µM | CC50 ([2]; cat, crfk cells): > 10000 µM; CC50 ([5]; cat, crfk cells): > 10000 µM; CC50 ([10]; pig, pk15 cells): > 10000 µM; CC50 ([11]; monkey, vero cells): > 10000 µM; CC50 ([13]; hamster, bhk-21 cells): > 10000 µM; CC50 ([14]; dog, mdck): > 10000 µM; CC50 ([16]; cat, fcwf-4 cells): > 10000 µM; CC50 ([17]; monkey, vero cells): > 10000 µM; CC50 ([19]; dog, a-72 cells): > 10000 µM; CC50 ([21]; pig, pam cells): > 10000 µM; SI (selectivity index) [22]: > 4.9; IC50 [22, 32]: < 2060 µM
O=c1[nH]cnc2c1ncn2[C@@H](CO)OC(CO)CO [Acyclic diol-Inosine, acyclic diol form of inosine] | > 5.4 | < 1870 µM | < 1810 µM | 2.8 (±0.9) | > 5.7 | < 1750 µM | > 28.3 | < 353 µM | > 3.7 | < 2700 µM | < 872 µM | > 11.5 | > 5.6 | < 1780 µM | > 27.6 | < 362 µM | 6.3 (±0.4) | 2.0 (±0.3) | > 7.9 | < 1270 µM | CC50 ([2]; cat, crfk cells): > 10000 µM; CC50 ([5]; cat, crfk cells): > 10000 µM; CC50 ([10]; pig, pk15 cells): > 10000 µM; CC50 ([11]; monkey, vero cells): > 10000 µM; CC50 ([13]; hamster, bhk-21 cells): > 10000 µM; CC50 ([14]; dog, mdck): > 10000 µM; CC50 ([16]; cat, fcwf-4 cells): > 10000 µM; CC50 ([17]; monkey, vero cells): > 10000 µM; CC50 ([19]; dog, a-72 cells): > 10000 µM; CC50 ([21]; pig, pam cells): > 10000 µM; SI (selectivity index) [22]: > 8.3; IC50 [22, 32]: < 1200 µM
O=c1[nH]c(=O)c2ncn([C@@H](CO)OC(CO)CO)c2[nH]1 [Acyclic diol-Xanthosine, acyclic diol form of xanthosine] | > 1.7 | < 5750 µM | < 2000 µM | 2.7 (±1.4) | > 3.4 | < 2960 µM | > 8.6 | < 1160 µM | > 4.9 | < 2050 µM | < 1020 µM | > 9.8 | > 7.4 | < 1350 µM | > 64.5 | < 155 µM | 4.7 (±1.3) | 1.7 (±0.3) | > 3.8 | < 2600 µM | CC50 ([2]; cat, crfk cells): > 10000 µM; CC50 ([5]; cat, crfk cells): > 10000 µM; CC50 ([10]; pig, pk15 cells): > 10000 µM; CC50 ([11]; monkey, vero cells): > 10000 µM; CC50 ([13]; hamster, bhk-21 cells): > 10000 µM; CC50 ([14]; dog, mdck): > 10000 µM; CC50 ([16]; cat, fcwf-4 cells): > 10000 µM; CC50 ([17]; monkey, vero cells): > 10000 µM; CC50 ([19]; dog, a-72 cells): > 10000 µM; CC50 ([21]; pig, pam cells): > 10000 µM; SI (selectivity index) [22]: > 5.0; IC50 [22, 32]: < 2000 µM
Nc1nc2c(ncn2[C@@H](C=O)O[C@@H](C=O)CO)c(=O)[nH]1 [Dialdehyde-Guanosine, dialdehyde form of guanosine] | > 158 | < 38 µM | < 102 µM | 3.5 (±0.7) | > 36.1 | < 165 µM | > 75.9 | < 79 µM | > 46.5 | < 129 µM | < 52.8 µM | > 113.7 | > 69.8 | < 85.9 µM | > 329.7 | < 18.2 µM | 4.7 (±0.3) | 2.5 (±0.1) | > 54.7 | < 110 µM | CC50 ([2]; cat, crfk cells): > 6000 µM; IC50 [3]: 102 µM; CC50 ([5]; cat, crfk cells): > 6000 µM; IC50 [7]: 79 µM; CC50 ([10]; pig, pk15 cells): > 6000 µM; CC50 ([11]; monkey, vero cells): > 6000 µM; IC50 ([12]; CAV, read-out: IC50): 85.9 µM; CC50 ([13]; hamster, bhk-21 cells): > 6000 µM; CC50 ([14]; dog, mdck): > 6000 µM; IC50 [15]: 18.2 µM; CC50 ([16]; cat, fcwf-4 cells): > 6000 µM; CC50 ([17]; monkey, vero cells): > 6000 µM; CC50 ([19]; dog, a-72 cells): > 6000 µM; CC50 ([21]; pig, pam cells): > 6000 µM; SI (selectivity index) [22]: > 52.3; IC50 ([22]; BHK-21): 115 µM; IC50 [22, 32]: < 115 µM; IC50 ([23]; Alphacoronavirus 1, A-72): 110 µM
O=C[C@@H](CO)O[C@H](C=O)n1cnc2c(=O)[nH]cnc21 [Dialdehyde-Inosine, dialdehyde form of inosine] | > 192 | < 52 µM | < 268 µM | 3.5 (±1.1) | > 42.0 | < 238 µM | > 103.5 | < 96.6 µM | > 93.9 | < 106 µM | < 45.5 µM | > 219.9 | > 30.7 | < 326 µM | > 384.6 | < 26 µM | 4.0 (±0.6) | 3.0 (±0.2) | > 221.7 | < 45.1 µM | CC50 [2]: > 10000 µM; SI (selectivity index) [3]: > 37.4; CC50 [5]: > 10000 µM; IC50 ([9]; Alphacoronavirus 1, FIPV, read-out: IC50): 45.5 µM; CC50 [10]: > 10000 µM; CC50 [11]: > 10000 µM; CC50 [13]: > 10000 µM; CC50 [14]: > 10000 µM; CC50 [16]: > 10000 µM; CC50 [17]: > 10000 µM; CC50 [19]: > 10000 µM; CC50 [21]: > 10000 µM; SI (selectivity index) [22]: > 22.9; IC50 [22, 32]: < 436 µM; IC50 ([23]; Alphacoronavirus 1, A-72): 45.1 µM
O=C[C@@H](CO)O[C@H](C=O)n1cnc2c(=O)[nH]c(=O)[nH]c21 [Dialdehyde-Xanthosine, dialdehyde form of xanthosine] | > 258 | < 31 µM | < 222 µM | 3.5 (±1.0) | > 63.8 | < 157 µM | > 90.9 | < 110 µM | > 125.1 | < 79.9 µM | < 55.1 µM | > 181.4 | > 77.2 | < 130 µM | > 398.0 | < 20.1 µM | 4.5 (±0.4) | 3.4 (±0.2) | > 232.6 | < 43 µM | IC50 [1]: 31 µM; CC50 [2]: > 8000 µM; SI (selectivity index) [3]: > 45.1; CC50 [5]: > 8000 µM; IC50 ([6]; PK-15): 157 µM; IC50 [8]: 79.9 µM; CC50 [10]: > 10000 µM; CC50 [11]: > 10000 µM; CC50 [14]: > 10000 µM; CC50 [16]: > 10000 µM; CC50 [17]: > 10000 µM; CC50 [19]: > 10000 µM; CC50 [21]: > 10000 µM; IC50 ([23]; Alphacoronavirus 1, A-72): 43 µM
